Assay results from patent US9402842B2, “Synthesis and use of dual tyrosyl-DNA phosphodiesterase I (Tdp1)—topoisomerase I (Top1) inhibitors” (Purdue Research Foundation, priority 2012, dated 2016).
Counter-ions that a name gives are not always drawn. Like-named read-outs stand apart in the source and are kept apart here. Each block holds one compound with its values, some of them ahead of it.

Assays:
[1] = system: all human cancer cell lines successfully tested; assay: NCI screen, mean graph midpoint (MGM) for growth inhibition; assay type: cell-based; conditions: for GI50: read-out: MGM GI50
human recombinant Top1 = human recombinant Top1 (Homo sapiens (Human), UniProt P11387); assay: Topoisomerase I-mediated DNA cleavage reactions; set-up: Top1 inhibition (text of part A): key to the marks not given beside the values; conditions: for Top1, compound-induced DNA cleavage due to Top1 inhibition: semiquantitative scale relative to 1 μM camptothecin (90) or MJ-III-65 (91)
human recombinant Top1, sequence (P11387 whole entry): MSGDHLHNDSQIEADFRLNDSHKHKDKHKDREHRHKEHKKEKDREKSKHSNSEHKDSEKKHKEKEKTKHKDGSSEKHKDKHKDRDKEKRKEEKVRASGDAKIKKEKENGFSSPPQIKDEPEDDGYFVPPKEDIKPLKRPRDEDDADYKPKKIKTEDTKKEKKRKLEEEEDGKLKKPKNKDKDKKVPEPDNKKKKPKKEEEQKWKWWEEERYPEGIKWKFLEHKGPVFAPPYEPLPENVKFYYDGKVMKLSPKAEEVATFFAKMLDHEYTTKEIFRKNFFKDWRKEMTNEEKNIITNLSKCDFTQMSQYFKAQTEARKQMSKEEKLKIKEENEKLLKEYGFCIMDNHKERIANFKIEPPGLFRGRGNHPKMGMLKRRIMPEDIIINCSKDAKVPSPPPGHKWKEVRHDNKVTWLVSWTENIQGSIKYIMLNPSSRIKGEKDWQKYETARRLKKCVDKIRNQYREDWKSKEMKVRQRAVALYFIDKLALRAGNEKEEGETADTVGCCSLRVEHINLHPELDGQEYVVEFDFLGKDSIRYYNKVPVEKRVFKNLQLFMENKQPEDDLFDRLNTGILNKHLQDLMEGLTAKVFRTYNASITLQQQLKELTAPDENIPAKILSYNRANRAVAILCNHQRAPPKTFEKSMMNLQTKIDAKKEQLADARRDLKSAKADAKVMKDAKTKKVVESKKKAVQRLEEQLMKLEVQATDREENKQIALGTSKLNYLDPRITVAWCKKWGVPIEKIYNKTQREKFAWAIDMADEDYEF

recombinant human Tdp1 = recombinant human Tdp1 (Homo sapiens (Human), UniProt Q9NUW8); assay: Gel-based assay measuring the inhibition of recombinant Tdp1; assay type: biochemical; conditions: for IC50: read-out: Tdp1 (semiquantitative IC50 scale); for Tdp1 inhibitory activity (in words): recombinant Tdp1
recombinant human Tdp1, sequence (Q9NUW8 whole entry): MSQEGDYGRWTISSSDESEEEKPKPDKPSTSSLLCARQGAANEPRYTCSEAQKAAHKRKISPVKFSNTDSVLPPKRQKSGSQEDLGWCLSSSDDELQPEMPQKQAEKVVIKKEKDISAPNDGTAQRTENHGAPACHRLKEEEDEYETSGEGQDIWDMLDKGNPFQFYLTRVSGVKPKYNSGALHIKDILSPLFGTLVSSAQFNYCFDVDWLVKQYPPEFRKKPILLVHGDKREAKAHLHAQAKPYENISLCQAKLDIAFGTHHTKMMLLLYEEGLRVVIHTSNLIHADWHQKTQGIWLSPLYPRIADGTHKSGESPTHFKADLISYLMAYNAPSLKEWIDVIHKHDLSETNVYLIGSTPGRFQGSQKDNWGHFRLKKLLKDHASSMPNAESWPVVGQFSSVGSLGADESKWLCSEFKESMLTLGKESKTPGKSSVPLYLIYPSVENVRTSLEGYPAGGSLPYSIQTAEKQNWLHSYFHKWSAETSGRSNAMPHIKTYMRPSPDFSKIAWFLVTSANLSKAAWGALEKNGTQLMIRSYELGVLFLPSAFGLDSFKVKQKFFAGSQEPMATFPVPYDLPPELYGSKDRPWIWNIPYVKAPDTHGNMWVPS
Procedure: Tdp1 inhibitory activity was measured by the drug's ability to inhibit the hydrolysis of the phosphodiester linkage between tyrosine and the 3′-end of the DNA substrate, and to prevent the generation of an oligonucleotide with a free 3′-phosphate (N14P). Therefore, the disappearance of the gel band for N14P indicated Tdp1 inhibition.
Gel-based Assay Measuring the Inhibition of Recombinant Tdp1.
A 5′-[^32P]-labeled single-stranded DNA oligonucleotide containing a 3′-phosphotyrosine (N14Y) was generated as described by Dexheimer et al. The DNA substrate was then incubated with 5 pM recombinant Tdp1 in the absence or presence of inhibitor for 15 min at room temperature in a buffer containing 50 mM Tris HCl, pH 7.5, 80 mM KCl, 2 mM EDTA, 1 mM DTT, 40 μg/ml BSA and 0.01% Tween-20. […] Gel images were scanned using a Typhoon 8600 (GE Healthcare) and densitometric analyses were performed using the ImageQuant software (GE Healthcare).

HCT-116 = assay: NCI screen cytotoxicity, colon HCT-116; conditions: read-out: Cytotoxicity (GI50 in μM) colon HCT-116; 50% growth inhibition
UACC-62 = assay: NCI screen cytotoxicity, melanoma UACC-62; conditions: read-out: Cytotoxicity (GI50 in μM) melanoma UACC-62; 50% growth inhibition
SN12C = assay: NCI screen cytotoxicity, renal SN12C; conditions: read-out: Cytotoxicity (GI50 in μM) renal SN12C; 50% growth inhibition
OVCAR-3 = assay: NCI screen cytotoxicity, ovarian OVCAR-3; conditions: read-out: Cytotoxicity (GI50 in μM) ovarian OVCAR-3; 50% growth inhibition
SF-539 = assay: NCI screen cytotoxicity, CNS SF-539; conditions: read-out: Cytotoxicity (GI50 in μM) CNS SF-539; 50% growth inhibition
MDA-MB-435 = assay: NCI screen cytotoxicity, breast MDA-MB-435; conditions: read-out: Cytotoxicity (GI50 in μM) breast MDA-MB-435; 50% growth inhibition
DU-145 = assay: NCI screen cytotoxicity, prostate DU-145; conditions: read-out: Cytotoxicity (GI50 in μM) prostate DU-145; 50% growth inhibition
HOP-62 = assay: NCI screen cytotoxicity, lung HOP-62; conditions: read-out: Cytotoxicity (GI50 in μM) lung HOP-62; 50% growth inhibition
[2] = system: single-stranded DNA substrate; assay: Surface plasmon resonance, binding to single-stranded DNA substrate; conditions: SPR
[3] = Homo sapiens, read-out: MGM (μM)
[4] = mean graph midpoint for growth inhibition of all human cancer cell lines successfully tested, read-out: MGM

Compound: COC(=O)C(=O)Nc1ccc2c3c(n(CCCN)c(=O)c2c1)-c1ccccc1C3=O [Compound 22 of (B), Methyl 2-[(6-(3-Aminopropyl)-5,11-dioxo-6,11-dihydro-5H-indeno[1,2-c]isoquinolin-3-yl)amino]-2-oxoacetate]
IC50 [1, 3]: 1.86 ± 0.38 µM
Top1, compound-induced DNA cleavage due to Top1 inhibition (human recombinant Top1): 0

Compound: COC(=O)CC(=O)Nc1ccc2c3c(n(CCCN)c(=O)c2c1)-c1ccccc1C3=O [Compound 23 of (B), Methyl 3-[(6-(3-Aminopropyl)-5,11-dioxo-6,11-dihydro-5H-indeno[1,2-c]isoquinolin-3-yl)amino]-3-oxopropanoate]
IC50 [1, 3]: 1.86 µM

Compound: COC(=O)CCCC(=O)Nc1ccc2c3c(n(CCCN)c(=O)c2c1)-c1ccccc1C3=O [Compound 25 of (B), Methyl 5-[(6-(3-Aminopropyl)-5,11-dioxo-6,11-dihydro-5H-indeno[1,2-c]isoquinolin-3-yl)amino]-5-oxopentanoate]
IC50 [1, 3]: 1.09 µM
Top1, compound-induced DNA cleavage due to Top1 inhibition (human recombinant Top1): 0
IC50 (recombinant human Tdp1; determined by duplicate): 37 to 111 µM

Compound: COC(=O)CCCCC(=O)Nc1ccc2c3c(n(CCCN)c(=O)c2c1)-c1ccccc1C3=O [Compound 26 of (B), Methyl 6-[(6-(3-Aminopropyl)-5,11-dioxo-6,11-dihydro-5H-indeno[1,2-c]isoquinolin-3-yl)amino]-6-oxohexanoate]
IC50 [1, 3]: 2.34 µM
Top1, compound-induced DNA cleavage due to Top1 inhibition (human recombinant Top1): (+)
IC50 (recombinant human Tdp1; determined by duplicate): 37 to 111 µM

Compound: CCOC(=O)CNc1ccc2c3c(n(CCCN)c(=O)c2c1)-c1ccccc1C3=O [Compound 40 of (B), Ethyl 2-[(6-(3-Aminopropyl)-5,11-dioxo-6,11-dihydro-5H-indeno[1,2-c]isoquinolin-3-yl)amino]acetate Hydrochloride]
GI50 (HCT-116): 0.44 µM
GI50 (UACC-62): 2.25 µM
GI50 (SN12C): 1.75 µM
GI50 (OVCAR-3): 3.12 µM
IC50 [1, 3]: 1.69 µM
GI50 (SF-539): 8.91 µM
GI50 (MDA-MB-435): 3.05 µM
GI50 (DU-145): 1.68 µM
GI50 (HOP-62): 0.93 µM

Compound: Cn1c2c(c3ccc(NCC(=O)O)cc3c1=O)C(=O)c1ccccc1-2 [Compound 41 of (B), 2-[(6-Methyl-5,11-dioxo-6,11-dihydro-5H-indeno[1,2-c]isoquinolin-3-yl)-amino]acetic Acid]
Top1, compound-induced DNA cleavage due to Top1 inhibition (human recombinant Top1): 0
Tdp1 inhibitory activity (in words) (recombinant human Tdp1; listed as 41): inactivity

Compound: CC(C)(C)OC(=O)NCCCn1c2c(c3ccc(NCC(=O)O)cc3c1=O)C(=O)c1ccccc1-2 [Compound 42 of (B), 2-((6-(3-((tert-Butoxycarbonyl)amino)propyl)-5,11-dioxo-6,11-dihydro-5H-indeno[1,2-c]isoquinolin-3-yl)amino)acetic Acid]
Top1, compound-induced DNA cleavage due to Top1 inhibition (human recombinant Top1): 0
Tdp1 inhibitory activity (in words) (recombinant human Tdp1): inactivity

Compound: Cl.NCCCn1c2c(c3ccc(NCC(=O)O)cc3c1=O)C(=O)c1ccccc1-2 [Compound 43 of (B), 2-((6-(3-Aminopropyl)-5,11-dioxo-6,11-dihydro-5H-indeno[1,2-c]isoquinolin-3-yl)amino)acetic Acid Hydrochloride]
GI50 (HCT-116): 0.33 µM
GI50 (UACC-62): 0.72 µM
GI50 (SN12C): 0.49 µM
GI50 (OVCAR-3): 1.6 µM
IC50 [1, 3]: 0.87 ± 0.014 µM
Top1, compound-induced DNA cleavage due to Top1 inhibition (human recombinant Top1): 0
IC50 (recombinant human Tdp1; determined by duplicate): 1 to 12 µM
GI50 (SF-539): 1.79 µM
GI50 (MDA-MB-435): 1.14 µM
GI50 (DU-145): 1.51 µM
GI50 (HOP-62): 0.65 µM

Compound: COc1ccc2c(c1)-c1c(c3ccc([N+](=O)[O-])cc3c(=O)n1CCCBr)C2=O [Compound 49 of (B), 6-(3-Bromopropyl)-5,6-dihydro-8-methoxy-3-nitro-5,11-dioxo-11H-indeno[1,2-c]isoquinoline]
Top1, compound-induced DNA cleavage due to Top1 inhibition (human recombinant Top1): +++
Tdp1 inhibitory activity (in words) (recombinant human Tdp1): very weak or inactive

Compound: COc1ccc2c(c1)-c1c(c3ccc([N+](=O)[O-])cc3c(=O)n1CCCN=[N+]=[N-])C2=O [Compound 50 of (B), 6-(3-Azidopropyl)-5,6-dihydro-8-methoxy-3-nitro-5,11-dioxo-11H-indeno[1,2-c]isoquinoline]
Top1, compound-induced DNA cleavage due to Top1 inhibition (human recombinant Top1): +
Tdp1 inhibitory activity (in words) (recombinant human Tdp1): very weak or inactive

Compound: COc1ccc2c(c1)-c1c(c3ccc([N+](=O)[O-])cc3c(=O)n1CCCN)C2=O.Cl [Compound 51 of (B), 6-(3-Aminopropyl)-5,6-dihydro-8-methoxy-3-nitro-5,11-dioxo-11H-indeno[1,2-c]isoquinoline Hydrochloride]
GI50 (HCT-116): 0.06 µM
GI50 (SN12C): 0.15 µM
GI50 (OVCAR-3): 0.54 µM
IC50 [1, 3]: 0.17 ± 0.017 µM
Top1, compound-induced DNA cleavage due to Top1 inhibition (human recombinant Top1): ++
IC50 (recombinant human Tdp1): 12 to 37 µM
GI50 (SF-539): 0.61 µM
GI50 (MDA-MB-435): 0.58 µM
GI50 (DU-145): 0.18 µM

Compound: COc1ccc2c(c1)-c1c(c3ccc([N+](=O)[O-])cc3c(=O)n1CCCn1ccnc1)C2=O [Compound 52 of (B), 6-(3-(1H-Imidazol-1-yl)propyl)-8-methoxy-3-nitro-5H-indeno[1,2-c]isoquinoline-5,11(6H)-dione]
GI50 (HCT-116): < 0.01 µM
GI50 (UACC-62): < 0.01 µM
GI50 (SN12C): < 0.01 µM
GI50 (OVCAR-3): 0.03 µM
IC50 [1, 4]: 0.02 ± 0.0006 µM
suppression of Top1-mediated DNA cleavage at high drug concentration (human recombinant Top1; high concentration of 100 μM): slight suppression
Top1, compound-induced DNA cleavage due to Top1 inhibition (human recombinant Top1): +++
Tdp1 (semiquantitative IC50 scale) (recombinant human Tdp1): (+)
GI50 (MDA-MB-435): 0.03 µM
GI50 (DU-145): < 0.01 µM
GI50 (HOP-62): < 0.01 µM

Compound: COc1ccc2c(c1)-c1c(c3ccc([N+](=O)[O-])cc3c(=O)n1CCCN1CCOCC1)C2=O [Compound 53 of (B), 8-Methoxy-6-(3-morpholinopropyl)-3-nitro-5H-indeno[1,2-c]isoquinoline-5,11(6H)-dione]
Top1, compound-induced DNA cleavage due to Top1 inhibition (human recombinant Top1): ++
Tdp1 inhibitory activity (in words) (recombinant human Tdp1): very weak or inactive

Compound: COc1ccc2c(c1)C(=O)c1c-2n(CCCN)c(=O)c2cc([N+](=O)[O-])ccc12 [Compound 54 of (B)]
GI50 (HCT-116): < 0.01 µM
GI50 (UACC-62): < 0.01 µM
GI50 (SN12C): < 0.01 µM
IC50 [1, 3]: 0.02 ± 0.0008 µM
GI50 (HOP-62): < 0.01 µM

Compound: NCCCn1c2c(c3ccc(N)cc3c1=O)C(=O)c1ccccc1-2 [Compound 62 of (B)]
GI50 (HCT-116): 0.18 µM
GI50 (UACC-62): 0.3 µM
GI50 (SN12C): 0.23 µM
GI50 (OVCAR-3): 0.13 µM
IC50 [1, 3]: 0.16 µM
GI50 (SF-539): 0.34 µM
GI50 (MDA-MB-435): 0.23 µM
GI50 (DU-145): 0.12 µM
GI50 (HOP-62): 0.27 µM

Compound: O=C1c2ccccc2-c2c1c1ccc([N+](=O)[O-])cc1c(=O)n2CCCO [Compound 63 of (B)]
GI50 (HCT-116): 0.19 µM
GI50 (UACC-62): 0.31 µM
GI50 (SN12C): 0.47 µM
GI50 (OVCAR-3): 0.87 µM
IC50 [1, 3]: 0.89 ± 0.22 µM
GI50 (MDA-MB-435): 1.97 µM
GI50 (DU-145): 0.43 µM

Top1, compound-induced DNA cleavage due to Top1 inhibition (human recombinant Top1): ++
IC50 (recombinant human Tdp1; determined by duplicate): > 111 µM
Compound: N#Cc1ccc2c3c(n(CCCn4ccnc4)c(=O)c2c1)-c1ccccc1C3=O [Compound 72]

Top1, compound-induced DNA cleavage due to Top1 inhibition (human recombinant Top1): ++
IC50 (recombinant human Tdp1; determined by duplicate): > 111 µM
Compound: N#Cc1ccc2c3c(n(CCCN4CCOCC4)c(=O)c2c1)-c1ccccc1C3=O [Compound 73]

Compound: COc1ccc2c(c1)C(=O)c1c-2n(CCCN)c(=O)c2cc(N)ccc12 [Compound 89 of (B), 3-Amino-6-(3-aminopropyl)-5,6-dihydro-9-methoxy-5,11-dioxo-11H-indeno[1,2-c]isoquinoline Dihydrochloride]
IC50 [1, 3]: 0.04 µM
IC50 (recombinant human Tdp1; determined by duplicate): 1 to 12 µM

Compound: CS(=O)(=O)NCCCCCCCCCCCn1c2c(c3ccccc3c1=O)C(=O)c1ccccc1-2 [Compound 89, N-(11-(5,11-Dioxo-5H-indeno[1,2-c]isoquinolin-6(11H)-yl)undecyl)-methanesulfonamide]
GI50 ([1]; Homo sapiens): 40 nM
Top1, compound-induced DNA cleavage due to Top1 inhibition (human recombinant Top1): ++

Compound: O=C(O)C(F)(F)F.O=C(O)C(F)(F)F.O=C1c2ccccc2-c2c1c1ccccc1c(=O)n2CCCNCCCNCCCn1c2c(c3ccccc3c1=O)C(=O)c1ccccc1-2 [Compound 145, Bis-1,3-{(5,6-dihydro-5,11-diketo-11H-indeno[1,2-c]isoquinoline)-6-propyl-amino}propane Bis(trifluoroacetate)]
GI50 ([1]; mean graph midpoint, NCI cancer cell line screen): 394 nM
Top1 inhibition (text of part A) (human recombinant Top1; semiquantitative scale relative to 1 μM camptothecin): ++++

binding to the single-stranded DNA substrate [2]: did not bind
Top1, compound-induced DNA cleavage due to Top1 inhibition (human recombinant Top1): ++
Compound: (6-Methyl-5,11-dioxo-6,11-dihydro-5H-indeno[1,2-c]isoquinolin-3-yl)-carbamic Acid [Compound 14 of (B)]

Top1 inhibition (in words) (human recombinant Top1): active
Compound: N-(6-(5,11-Dioxo-5H-indeno[1,2-c]isoquinolin-6(11H)hexyl)-methanesulfonamide [Compound 84]
IC50 [1, 4]: 0.25 ± 0.004 µM
